A short description of experiment [1]: Inhibition of Bacillus anthracis Protective antigen-mediated cytotoxicity in RAW264.7 cells compound co-treated for 5 hrs with antigen by MTT assay in presence of lethal factor. (In general: Tetrazolium dyes change colour on reduction, which living cells bring about.)
The nature of experiment [2]: Inhibition of Bacillus anthracis Protective antigen-mediated cytotoxicity in RAW264.7 cells compound co-treated for 5 hrs with antigen measured after 48 hrs by MTT assay in presence of FP59.
A short description of experiment [3]: Inhibition of matrix metalloprotease activated Bacillus anthracis Protective antigen-mediated cytotoxicity in HT1080 cells compound co-treated for 5 hrs with antigen measured after 48 hrs by MTT assay in presence of FP59.
Experiment [4] in a line: Inhibition of Bacillus anthracis Protective antigen-mediated cytotoxicity in HT1080 cells compound co-treated for 5 hrs with antigen measured after 48 hrs by MTT assay in presence of FP59.

Molecules are shown by their SMILES.

Broadly, the EC50 is the concentration that produces a half-maximal response.

Take `NC(=O)c1ccccc1NC(=O)c1ccc(C(=O)Nc2ccccc2C(N)=O)cc1`: the concentration giving a half-maximal response (EC50) came out at 3000 nM in experiment [1], 1000 nM in experiment [2], 1000 nM in experiment [3] and 1000 nM in experiment [4].
Turning to `Oc1ccccc1/C=N/c1ccc(Cc2ccc(/N=C/c3ccccc3O)c(O)c2)cc1O`, the EC50 came out at 3000 nM in experiment [1], 1000 nM in experiment [2], 1000 nM in experiment [3] and 1000 nM in experiment [4].

These data come from BindingDB's records for doi:10.1021/jm300804e (National Institute of Allergy and Infectious Diseases, 2012).
